Results from US11197906B2, “Methods of lowering blink reflex for the treatment of dry eye disease” (Tufts Medical Center, priority 2016, dated 2021).
Non-standard residues stand in square brackets, D forms with d. Residues, ends and D or L forms follow the SMILES beside them. Primed or numbered codes have the meaning given here. *: point of attachment. Palmitoyl = CCCCCCCCCCCCCCCC(=O)*; Tic = O=C(O)[C@@H]1Cc2ccccc2CN1; PEG8′ = not defined here

Key:
[1] = system: chronic constriction injury (CCI) mouse model; experiment: Chronic constriction injury (CCI) mouse model of neuropathic pain; format: in vivo; settings: for effect on neuropathic pain: CCI mouse model; for time after compound administration over which mechanical hypersensitivity is blocked / efficacy kept: intrathecal administration
Procedure: Following intrathecal administration of compound, 1-Stable Chem (C16-stable Chem9) blocked mechanical hypersensitivity for more than 24 hours after compound administration (FIG. 6A). In contrast, Resolvin E1 lost efficacy by 3 hours post injection (FIG. 6B).
One emerging treatment strategy to treat neuropathic pain is to target modulators of the neuroinflammatory process which contributes to neuropathic pain. We have previously identified a palmitoylated stable analog (“C16-Stable Chem9”) derived from a 9 amino acid fragment of chemerin. […] Extending from these observations, we hypothesized that the pharmacological properties of our peptide may be further optimized by modifying the lipid anchor. We have chemically synthesized a series of Chem 9 analogs with various lipid tails (e.g. cholesterol, oleic acid, linolenic acid). In vitro pharmacological characterization of each peptide was done using HEK293 cells transiently expressing the recombinant CMKLR1. […] Furthermore, selected lipid tails bias binding to either albumin (thus enhancing systemic delivery) or to the cellular membrane (which favors locally restricted function). The lipidated CMKLR1 ligands have promise as modulators of neuropathic pain. In addition, our findings illustrate an approach where serial addition/substitution of lipid anchors can be applied to optimize the pharmacological as well as pharmacokinetic properties of many peptide ligands.

CMKLR1 [2] = molecular target: T1, CMKLR1 (Homo sapiens, UniProt Q99788); experiment: β-Arrestin recruitment, Link-Light CMKLR1 stable cell line; format: cell-based; settings: 1 hr treatment; for Emax: read-out: Max Efficacy (% 10 μM s-Stable chem9)
T1 construct: expressed in transfected cells; host or cells: HEK293
T1 sequence (Q99788 1-373): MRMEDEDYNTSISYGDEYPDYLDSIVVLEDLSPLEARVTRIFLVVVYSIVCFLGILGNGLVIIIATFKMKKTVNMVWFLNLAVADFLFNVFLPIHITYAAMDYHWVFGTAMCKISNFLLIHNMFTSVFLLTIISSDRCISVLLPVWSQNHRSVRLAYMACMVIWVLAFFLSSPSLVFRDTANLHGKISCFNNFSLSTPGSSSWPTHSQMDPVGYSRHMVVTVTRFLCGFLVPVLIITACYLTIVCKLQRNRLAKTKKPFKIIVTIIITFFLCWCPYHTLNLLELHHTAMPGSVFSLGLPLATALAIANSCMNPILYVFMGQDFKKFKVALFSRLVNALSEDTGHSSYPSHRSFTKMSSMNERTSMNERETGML

DED mice = experiment: Dry eye disease (DED) mouse model (scopolamine and desiccating stress); format: in vivo
Source text: FIG. 11 is a graph showing that corneal fluorescein staining scores were lower in DED mice treated with oTTx-010. NEI scoring system: 0-15.
FIG. 13 is a set of flow cytometry graphs showing that percentage of activated immune cells (MHCII+) in the draining lymph node of oTTx-010 treated mice decreased compared to vehicle controls.
FIG. 14 is a set of flow cytometry graphs showing that T regulatory cells increased in the draining lymph node of oTTx-010 treated mice compared to vehicle (showing more tolerance). Flow cytometry of draining lymph nodes gated on CD45+ CD3+ and CD4+ (T cells).
In the DED mouse model, scopolamine is injected 3 times/day to decrease tear production in mice. Fenestrated cages and 4 fans around the cage working 24 hours/day are used to induce desiccating stress and dry eyes. oTTx-010 is administered to the mice to assess treatment efficacy. Vehicle is administered as control.

[3] = system: mouse model of corneal inflammation; experiment: Thermal cautery mouse model of corneal inflammation; format: in vivo
Procedure: FIG. 15 is a set of flow cytometry graphs showing that cell infiltration decreases after topical application of oTTx-010 compared to vehicle. Flow cytometry of pulled corneas was performed on day 3 post cautery. Mice were treated topically three times a day with 10 μL of oTTx-010 or vehicle for 3 days. 10 μL of […] oTTx-010 in 1×PBS solution=4.2 micrograms oTTx-010/dose.
Thermal cautery is a mouse model of corneal inflammation (see Arch Ophthalmol. 2003 Hamrah et al.).

CMKLR1 [4] = molecular target: T1, CMKLR1; experiment: Luciferase reporter assay of CMKLR1 canonical Gαi signal transduction in HEK293 cells transiently expressing recombinant CMKLR1 (+/- wash, +/- albumin); format: cell-based; settings: for EC50: no wash

CC[C@@H](O)/C=C/C=C\C[C@@H](O)/C=C/C=C/C=C\[C@@H](O)CCCC(=O)O [Resolvin E1, reference compound]
effect on neuropathic pain [1]: abrogate neuropathic pain | time after compound administration over which mechanical hypersensitivity is blocked / efficacy kept [1]: ≤ 3 h

CCCCCC/C=C\CCCCCCCC(=O)NCCOCCOCCOCCOCCOCCOCCOCCOCCC(=O)N[C@@H](CCCCN)C(=O)NCC(=O)NCC(=O)N[C@H](Cc1ccc(O)cc1)C(=O)N[C@@H](Cc1ccccc1)C(=O)N[C@@H](CC(C)C)C(=O)N1CCC[C@H]1C(=O)N[C@H](CO)C(=O)N[C@@H](CCC(N)=O)C(=O)N[C@@H](Cc1ccccc1)C(=O)N[C@H](C)C(=O)N1Cc2ccccc2C[C@H]1C(=O)N[C@@H](CO)C(=O)O [C16:1] (HELM PEPTIDE1{[CCCCCC/C=C\CCCCCCCC(=O)[*:2]].[O=C(CCOCCOCCOCCOCCOCCOCCOCCOCCN[*:1])[*:2]].K.G.G.[dY].F.L.P.[dS].Q.F.[dA].[Tic].S}$$$$V2.0; N-terminus and C-terminus assumed)
Emax (CMKLR1 [2]): 154%

palmitate-PEG8KGG-H2N-Y*-F-L-P-S*-Q-F-A*-Tic-S-COOH ({Palmitoyl-PEG8′}-KGG[dY]FLP[dS]QF[dA][Tic]S-OH) [oTTx-010]
corneal fluorescein staining scores (DED mice; NEI scoring system: 0-15, compared with vehicle): lower | blink reflex as a sign of ocular irritation (DED mice; compared to vehicle treated group): significantly lower | T regulatory cells in the draining lymph node (DED mice; flow cytometry gated on CD45+ CD3+ and CD4+, compared to vehicle): increased | percentage of activated immune cells (MHCII+) in the draining lymph node (DED mice; flow cytometry, compared to vehicle controls): decreased | clinical symptoms and signs and immune tolerance in DED (DED mice; topical): decrease clinical symptoms and signs and improve immune tolerance | cell infiltration (flow cytometry of corneas) ([3]; day 3 post cautery, topical three times a day 10 μL for 3 days, compared to vehicle): decreases | inflammation in the eye ([3]; topical): decrease inflammation in the eye

CCCC/C=C\CCCCCCCC(=O)NCCOCCOCCOCCOCCOCCOCCOCCOCCC(=O)N[C@@H](CCCCN)C(=O)NCC(=O)NCC(=O)N[C@H](Cc1ccc(O)cc1)C(=O)N[C@@H](Cc1ccccc1)C(=O)N[C@@H](CC(C)C)C(=O)N1CCC[C@H]1C(=O)N[C@H](CO)C(=O)N[C@@H](CCC(N)=O)C(=O)N[C@@H](Cc1ccccc1)C(=O)N[C@H](C)C(=O)N1Cc2ccccc2C[C@H]1C(=O)N[C@@H](CO)C(=O)O [C14:1] (HELM PEPTIDE1{[CCCC/C=C\CCCCCCCC(=O)[*:2]].[O=C(CCOCCOCCOCCOCCOCCOCCOCCOCCN[*:1])[*:2]].K.G.G.[dY].F.L.P.[dS].Q.F.[dA].[Tic].S}$$$$V2.0; N-terminus and C-terminus assumed)
Emax (CMKLR1 [2]): 124%

CCCCCCCCCCCCCCCC(=O)NCCOCCOCCOCCOCCOCCOCCOCCOCCC(=O)N[C@@H](CCCCN)C(=O)NCC(=O)NCC(=O)N[C@H](Cc1ccc(O)cc1)C(=O)N[C@@H](Cc1ccccc1)C(=O)N[C@@H](CC(C)C)C(=O)N1CCC[C@H]1C(=O)N[C@H](CO)C(=O)N[C@@H](CCC(N)=O)C(=O)N[C@@H](Cc1ccccc1)C(=O)N[C@H](C)C(=O)N1Cc2ccccc2C[C@H]1C(=O)N[C@@H](CO)C(=O)O [C16] (HELM PEPTIDE1{[CCCCCCCCCCCCCCCC(=O)[*:2]].[O=C(CCOCCOCCOCCOCCOCCOCCOCCOCCN[*:1])[*:2]].K.G.G.[dY].F.L.P.[dS].Q.F.[dA].[Tic].S}$$$$V2.0; N-terminus and C-terminus assumed)
Emax (CMKLR1 [2]): 165% | potency and duration of activity (anchors to the cell membrane) (CMKLR1 [4]; previously identified analog): high potency and long-term activity | wash resistance (an index of membrane adherence) in the presence of BSA (CMKLR1 [4]; with BSA, FIGS. 8A-8B): decreased | effect on neuropathic pain ([1]; listed as C16-stable Chem9): abrogate neuropathic pain | effect on neuropathic pain ([1]; listed as palm sC9): alleviated neuropathic pain | time after compound administration over which mechanical hypersensitivity is blocked / efficacy kept [1]: more than 24 hours

CCCC(=O)NCCOCCOCCOCCOCCOCCOCCOCCOCCC(=O)N[C@@H](CCCCN)C(=O)NCC(=O)NCC(=O)N[C@H](Cc1ccc(O)cc1)C(=O)N[C@@H](Cc1ccccc1)C(=O)N[C@@H](CC(C)C)C(=O)N1CCC[C@H]1C(=O)N[C@H](CO)C(=O)N[C@@H](CCC(N)=O)C(=O)N[C@@H](Cc1ccccc1)C(=O)N[C@H](C)C(=O)N1Cc2ccccc2C[C@H]1C(=O)N[C@@H](CO)C(=O)O [C4] (HELM PEPTIDE1{[CCCC(=O)[*:2]].[O=C(CCOCCOCCOCCOCCOCCOCCOCCOCCN[*:1])[*:2]].K.G.G.[dY].F.L.P.[dS].Q.F.[dA].[Tic].S}$$$$V2.0; N-terminus and C-terminus assumed)
Emax (CMKLR1 [2]): 89.7%

CCCCCCCCCC(=O)NCCOCCOCCOCCOCCOCCOCCOCCOCCC(=O)N[C@@H](CCCCN)C(=O)NCC(=O)NCC(=O)N[C@H](Cc1ccc(O)cc1)C(=O)N[C@@H](Cc1ccccc1)C(=O)N[C@@H](CC(C)C)C(=O)N1CCC[C@H]1C(=O)N[C@H](CO)C(=O)N[C@@H](CCC(N)=O)C(=O)N[C@@H](Cc1ccccc1)C(=O)N[C@H](C)C(=O)N1Cc2ccccc2C[C@H]1C(=O)N[C@@H](CO)C(=O)O [C10] (HELM PEPTIDE1{[CCCCCCCCCC(=O)[*:2]].[O=C(CCOCCOCCOCCOCCOCCOCCOCCOCCN[*:1])[*:2]].K.G.G.[dY].F.L.P.[dS].Q.F.[dA].[Tic].S}$$$$V2.0; N-terminus and C-terminus assumed)
Emax (CMKLR1 [2]): 98.3%

CC/C=C\C/C=C\C/C=C\CCCCCCCC(=O)NCCOCCOCCOCCOCCOCCOCCOCCOCCC(=O)N[C@@H](CCCCN)C(=O)NCC(=O)NCC(=O)N[C@H](Cc1ccc(O)cc1)C(=O)N[C@@H](Cc1ccccc1)C(=O)N[C@@H](CC(C)C)C(=O)N1CCC[C@H]1C(=O)N[C@H](CO)C(=O)N[C@@H](CCC(N)=O)C(=O)N[C@@H](Cc1ccccc1)C(=O)N[C@H](C)C(=O)N1Cc2ccccc2C[C@H]1C(=O)N[C@@H](CO)C(=O)O [C18:3] (HELM PEPTIDE1{[CC/C=C\C/C=C\C/C=C\CCCCCCCC(=O)[*:2]].[O=C(CCOCCOCCOCCOCCOCCOCCOCCOCCN[*:1])[*:2]].K.G.G.[dY].F.L.P.[dS].Q.F.[dA].[Tic].S}$$$$V2.0; N-terminus and C-terminus assumed)
Emax (CMKLR1 [2]): 110% | activity after washing in the presence of BSA (CMKLR1 [4]; with BSA, FIGS. 8C-8D): further reduced

CC(C)C[C@H](NC(=O)[C@H](Cc1ccccc1)NC(=O)[C@H](N)Cc1ccc(O)cc1)C(=O)N1CCC[C@H]1C(=O)N[C@H](CO)C(=O)N[C@@H](CCC(N)=O)C(=O)N[C@@H](Cc1ccccc1)C(=O)N[C@H](C)C(=O)N1Cc2ccccc2C[C@H]1C(=O)N[C@@H](CO)C(=O)O [none, reference compound] (HELM PEPTIDE1{[dY].F.L.P.[dS].Q.F.[dA].[Tic].S}$$$$V2.0)
EC50 (CMKLR1 [2]): 0.0319 µM | Emax (CMKLR1 [2]): 100% | EC50 (CMKLR1 [4]; no BSA, read-out: EC50 (no wash0)): 0.0352 µM | EC50 (CMKLR1 [4]; with BSA, read-out: EC50 (BSA) (no wash)): 0.0051 µM

CCCCCCCC/C=C\CCCCCCCC(=O)NCCOCCOCCOCCOCCOCCOCCOCCOCCC(=O)N[C@@H](CCCCN)C(=O)NCC(=O)NCC(=O)N[C@H](Cc1ccc(O)cc1)C(=O)N[C@@H](Cc1ccccc1)C(=O)N[C@@H](CC(C)C)C(=O)N1CCC[C@H]1C(=O)N[C@H](CO)C(=O)N[C@@H](CCC(N)=O)C(=O)N[C@@H](Cc1ccccc1)C(=O)N[C@H](C)C(=O)N1Cc2ccccc2C[C@H]1C(=O)N[C@@H](CO)C(=O)O [C18:1] (HELM PEPTIDE1{[CCCCCCCC/C=C\CCCCCCCC(=O)[*:2]].[O=C(CCOCCOCCOCCOCCOCCOCCOCCOCCN[*:1])[*:2]].K.G.G.[dY].F.L.P.[dS].Q.F.[dA].[Tic].S}$$$$V2.0; N-terminus and C-terminus assumed)
Emax (CMKLR1 [2]): 160%
